From patent EP2062893A1, “Fused imidazoles for cancer treatment” (Bayer Schering Pharma AG, priority 2007, dated 2009)

Columns and labels:
Format in all cases: cell-based
OvCAR3 cells = assay: Cellular proliferation / Cytotoxicity assay (Alamar Blue / Resazurin cell viability); conditions: Homo sapiens, OVCAR-3, 48h incubation, read-out: Anti-proliferative / Cytotoxic activity (OvCAR3 cells)
Method: Wells containing untreated control cells were filled with 200 µl DMEM (Dulbecco's Modified Eagle Medium) containing 0.5vol% v:v DMSO. The cells are then incubated with the substances for 48h at 37°C in a humidified atmosphere containing 5vol% CO2. To determine the viability of the cells, 20 µl of a Resazurin solution (90mg / I) are added. […] Viabilities are expressed as % values.

[1] = test system: phosphorylated Akt protein; assay: Cellular PI3K / Akt pathway assay (phospho-Akt Ser473 sandwich ELISA); conditions: Homo sapiens; MCF7 cells, ß-Heregulin (20ng/ml) stimulation, 48h incubation
Method: In order to study the cellular activity of the compounds according to the present invention, an Enzyme Linked Immunosorbent Assay (ELISA)-based assay has been used specific phospho-AKT. The assay is based on a Sandwich ELISA kit (PathScan™ Phospho-Akt1 (Ser473); Cell Signaling, USA; #7160). The ELISA Kit detects endogenous levels of phosphorylated Akt protein. A phospho-Akt (Ser473) antibody (Cell Signaling, USA; #9271) has been coated onto the microwells. After incubation with cell lysates, the coated antibody captures the phosphorylated Akt protein. Following extensive washing, Akt1 monoclonal antibody (Cell Signaling, USA; #2967) is added to detect the captured phospho-Akt1 protein. HRP-linked anti-mouse antibody (HRP: horseradish peroxidase; Cell Signaling, USA; #7076) is then used to recognize the bound detection antibody. HRP substrate (= 3,3',5,5'-tetramethylbenzidine (TMB); Cell Signaling, USA; #7160) is added to develop colour. The magnitude of optical density for this developed color is proportional to the quantity of phosphorylated Akt protein. MCF7 cells (ATCC HTB-22) are seeded into 96 well fate bottom plates at a density of 10000 cells/well. 24 hours after seeding, the cells are serum starved using low-serum medium (IMEM media including 0,1% charcoal treated FCS (FCS: fetal calf serum)). […] To stimulate Akt phosphorylation, ß-Heregulin (20ng/ml ß-HRG) is added in parallel to the compounds. Wells containing unstimulated control cells (no ß-Heregulin stimulation) are incubated with or without the diluted compound. Wells containing untreated control cells (no compound) are filled with medium containing 0.5% v:v DMSO and are or are not stimulated with ß-Heregulin. Cells are harvested and lysed with brief sonification in 1x cell lysis buffer (20mM Tris (pH7.5), 150 mM NaCl, 1 mM ethylene diaminetetraacetate (EDTA), 1 mM ethylene glycolbis(2-aminoethyl)-N,N,N',N'-tetraacetic acid (EGTA), 1vol% Triton X-100, 2.5mM sodium pyrophosphate, 1 mM β-glycerolphosphate, 1 mM Na3VO4, 1µg/ml leupeptin). The lysate is centrifuged for 10 min. at 4°C and the supernatant is transferred to a new tube. 100 µl of sample diluent (0.1vol% Tween-20, 0.1vol% sodium azide in phosphate buffered saline (PBS)) are added to a microcentrifuge tube and 100 µl of cell lysate are transferred into the tube and vortexed. 100 µl of each diluted cell lysate are added to the appropriate ELISA well, and incubated overnight at 4°C. The plates are washed 4 times with 1x wash buffer (1vol% tween-20, 0.33vol% thymol, in PBS). Next 100 µl of detection antibody (Akt1 (2H10) monoclonal detection antibody; Cell Signaling, USA; #2967) are added to each well and incubation continued for 1h at 37°C. The washing procedure is repeated between each step. 100µl of secondary antibody (anti-mouse IgG HRP-linked antibody; Cell Signaling, USA; #7076) are added to each well and incubated for 30 min. at 37°C. Than, 100µl of TMB substrate (0.05% 3,3',5,5' tetramethylbenzidine, 0.1 % hydrogen peroxide, complex polypeptides in a buffered solution; Cell Signaling, USA; #7160) are added to each well and incubated for 30 min. at 25°C. Finally 100 µl of STOP solution (0.05vol% α and β unsaturated carbonyl compound) are added to each well and the plate are shaked gently. The absorbance is measured at λ =450 nm (Wallac Victor2; Perkin Elmer, USA) within 30 min. after adding the STOP solution. The analysis of the data is performed using a statistical program (Excel; Microsoft, USA). Preferred compounds show an inhibitory activity towards Akt phosphorylation below 10µM.

phosphorylated GSK3 = assay: Cellular pGSK3 assay (phospho-GSK3 Ser9 sandwich ELISA); conditions: Homo sapiens; MCF7 cells, 48h incubation, IC50 of pGSK3 inhibition
Method: In order to study the cellular activity of the compounds according to the present invention, an ELISA-based assay has been established for the phosphorylated protein glycogen synthetase kinase 3 (GSK3). The assay is based on a solid phase sandwich ELISA that detects endogenous levels of phosphorylated GSK3 using a phospho-GSK3 (Ser9) specific antibody (BioSource International, Inc.; Catalog #KHO0461). After incubation with cell lysates, the coated antibody captures the phosphorylated GSK3 protein. Following extensive washing, GSK3 polyclonal antibody is added to detect the captured phospho-GSK3 protein. Secondary antibody (anti-rabbit IgG-HRP) is then used to recognize the bound detection antibody. After the second incubation and washing to remove all the excess anti-rabbit IgG-HRP, a substrate solution is added, which is acted upon by the bound enzyme to produce color. The intensity of this colored product is directly proportional to the concentration of GSK-3β [pS9] present in the original specimen. MCF7 cells (ATCC HTB-22) were seeded into 96 well fate bottom plates at a density of 10000 cells/well. After 24 h 1 µl each of the compound dilutions (test compounds were dissolved as 10 mM solutions in dimethylsulfoxide (DMSO) and subsequently diluted) were added into each well of the 96 well plates and incubated for 48h at 37°C in a humidified athmosphere containing 5% CO2. Cells were harvested and lysed in cell extraction buffer (10 mM Tris, pH 7.4, 100 mM NaCl, 1 mM EDTA, 1 mM EGTA, 1 mM NaF, 20 mM Na4P2O7, 2 mM Na3VO4, 1% Triton X-100, 10vol% glycerol, 0.1vol% SDS, 0.5vol% deoxycholate, 1 mM phenylmethylsulfonylfluorid (PMSF)). The lysate were centrifuged for 10 min. at 4°C and the supernatant were transferred to a new tube. 50 µl of sample diluent (standard diluent buffer, Biosource) were added and 100 µl of cell lysate transferred into the tube and vortexed. 100 µl of each diluted cell lysate were added to the appropriate ELISA well plate and incubated for 3h at room temperature. The plates were washed 4 times with 1x wash buffer (Biosource). 50 µl of detection antibody (GSK3 (Ser9) detection antibody; BioSource) were added to each well and incubated for 30 min. at room temperature. The washing procedure was repeated between each step. 100µl of HRP-linked secondary antibody (anti-mouse IgG HRP-linked antibody) were added to each well and incubated for 30 min. at room temperature. 100µl of TMB substrate (0.05vol% 3,3',5,5' tetramethylbenzidine, 0.1vol% hydrogen peroxide, complex polypeptides in a buffered solution; Biosource) were added to each well and incubated for 30 min. at room temperature. Finally 100 µl of Stop solution (0.05vol% α and β unsaturated carbonyl compound) were added to each well and the plate were shaked gently for a few seconds. The absorbance was measured at λ = 450 nm (Wallac Victor2; Perkin Elmer, USA) within 30 min. after adding the stop solution. The analysis of the data was performed using a statistical program (Excel; Microsoft, USA) and the IC50 of pGSK3 inhibition was determined.

Structure (SMILES)	IC50 (OvCAR3 cells)	IC50 [1]	IC50 (phosphorylated GSK3)
Clc1cnc2nc(-c3ccc(CN4CCC(c5n[nH]c(-c6ccccn6)n5)CC4)cc3)c(-c3ccccc3)n2c1 [Example 21, 6-chloro-3-phenyl-2-(4-{[4-(5-pyridin-2-yl-1,2,4-triazol-3-yl)piperidin-1-yl]methyl}phenyl)imidazo[1,2-a]pyrimidine]	< 10 µM	< 1000 nM	1000 to 10000 nM
Fc1ccc2nc(-c3ccc(CN4CCC(c5n[nH]c(-c6ccccn6)n5)CC4)cc3)c(-c3ccccc3)n2c1 [Example 22, 6-fluoro-3-phenyl-2-(4-{[4-(5-pyridin-2-yl-1,2,4-triazol-3-yl)piperidin-1-yl]methyl}phenyl)imidazo[1,2-a]pyridine]	< 10 µM	< 1000 nM	1000 to 10000 nM
Ic1cnc2nc(-c3ccc(CN4CCC(c5n[nH]c(-c6ccccn6)n5)CC4)cc3)c(-c3ccccc3)n2c1 [Example 23, 6-iodo-3-phenyl-2-(4-{[4-(5-pyridin-2-yl-1,2,4-triazol-3-yl)piperidin-1-yl]methyl}phenyl)imidazo[1,2-a]pyrimidine]	< 10 µM	< 1000 nM	1000 to 10000 nM
COc1ccn2c(-c3ccccc3)c(-c3ccc(CN4CCC(c5n[nH]c(-c6ccccn6)n5)CC4)cc3)nc2n1 [Example 24, 7-methoxy-3-phenyl-2-(4-{[4-(5-pyridin-2-yl-1,2,4-triazol-3-yl)piperidin-1-yl]methyl}phenyl)imidazo[1,2-a]pyrimidine]	< 10 µM	< 1000 nM	< 1000 nM
Brc1cccn2c(-c3ccccc3)c(-c3ccc(CN4CCC(c5n[nH]c(-c6ccccn6)n5)CC4)cc3)nc12 [Example 25, 8-bromo-3-phenyl-2-(4-{[4-(5-pyridin-2-yl-1,2,4-triazol-3-yl)piperidin-1-yl]methyl}phenyl)imidazo[1,2-a]pyridine]	< 10 µM	< 1000 nM	< 1000 nM
COc1nccn2c(-c3ccccc3)c(-c3ccc(CN4CCC(c5n[nH]c(-c6ccccn6)n5)CC4)cc3)nc12 [Example 27, 8-methoxy-3-phenyl-2-(4-{[4-(5-pyridin-2-yl-1,2,4-triazol-3-yl)piperidin-1-yl]methyl}phenyl)imidazo[1,2-a]pyrazine]	< 10 µM	< 1000 nM	1000 to 10000 nM
N#Cc1ccn2c(-c3ccccc3)c(-c3ccc(CN4CCC(c5n[nH]c(-c6ccccn6)n5)CC4)cc3)nc2c1 [Example 29, 3-phenyl-2-(4-{[4-(5-pyridin-2-yl-1,2,4-triazol-3-yl)piperidin-1-yl]methyl}phenyl)imidazo[1,2-a]pyridine-7-carbonitrile]	< 10 µM	< 1000 nM	< 1000 nM
c1ccc(-c2c(-c3ccc(CN4CCC(c5cc(-c6ccccn6)n[nH]5)CC4)cc3)nc3ncccn23)cc1 [Example 30, 3-phenyl-2-(4-{[4-(3-pyridin-2-yl-pyrazol-5-yl)piperidin-1-yl]methyl}phenyl)imidazo[1,2-a]pyrimidine]	< 10 µM	1000 to 10000 nM	< 1000 nM
COc1ccc2nc(-c3ccc(CN4CCC(c5n[nH]c(-c6ccccn6)n5)CC4)cc3)c(-c3ccccc3)n2n1 [Example 32, 6-methoxy-3-phenyl-2-(4-{[4-(5-pyridin-2-yl-1,2,4-triazol-3-yl)piperidin-1-yl]methyl}phenyl)imidazo[1,2-b]pyridazine]	< 10 µM	< 1000 nM	1000 to 10000 nM
N=C(N)c1cccn2c(-c3ccccc3)c(-c3ccc(CN4CCC(c5n[nH]c(-c6ccccn6)n5)CC4)cc3)nc12 [Example 33, 3-phenyl-2-(4-{[4-(5-pyridin-2-yl-1,2,4-triazol-3-yl)piperidin-1-yl]methyl}phenyl)imidazo[1,2-a]pyridine-8-carboximidamide]	> 10 µM	1000 to 10000 nM	> 10000 nM
c1ccc(-c2nc(C3CCN(Cc4ccc(-c5nc6ncccn6c5-c5ccsc5)cc4)CC3)n[nH]2)nc1 [Example 34, 2-(4-{[4-(5-pyridin-2-yl-1,2,4-triazol-3-yl)piperidin-1-yl]methyl}phenyl)-3-(3-thienyl)imidazo[1,2-a]pyrimidine]	< 10 µM	< 1000 nM	< 1000 nM
c1ccc(-c2c(-c3ccc(CN4CCC(c5n[nH]c(-c6ccccn6)n5)CC4)cc3)nc3cnccn23)cc1 [Example 37, 3-phenyl-2-(4-{[4-(5-pyridin-2-yl-1,2,4-triazol-3-yl)piperidin-1-yl]methyl}phenyl)imidazo[1,2-a]pyrazine]	< 10 µM	< 1000 nM	1000 to 10000 nM
NC(=O)c1ccn2c(-c3ccccc3)c(-c3ccc(CN4CCC(c5n[nH]c(-c6ccccn6)n5)CC4)cc3)nc2c1 [Example 38, 3-phenyl-2-(4-{[4-(5-pyridin-2-yl-1,2,4-triazol-3-yl)piperidin-1-yl]methyl}phenyl)imidazo[1,2-a]pyridine-7-carboxamide]	< 10 µM	< 1000 nM	< 1000 nM
c1ccc(-c2nc(C3CCN(Cc4ccc(-c5nc6ncccn6c5-c5nccs5)cc4)CC3)n[nH]2)nc1 [Example 39, 2-(4-{[4-(5-pyridin-2-yl-1,2,4-triazol-3-yl)piperidin-1-yl]methyl}phenyl)-3-(1,3-thiazol-2-yl)imidazo[1,2-a]pyrimidine]	< 10 µM	< 1000 nM	1000 to 10000 nM
